From ChEMBL document CHEMBL2010710, “Flavimycins A and B, dimeric 1,3-dihydroisobenzofurans with peptide deformylase inhibitory activity from Aspergillus flavipes” (J Nat Prod, 2012)
≈ marks a conversion by molar mass, not a printed value.

Experiments:
Staphylococcus aureus [1] = assay: Antibacterial activity against Staphylococcus aureus RN4220 after 18 hrs by broth microdilution method; assay type: functional; settings: RN4220, 18 h
Staphylococcus aureus [2] = assay: Antibacterial activity against methicillin-resistant Staphylococcus aureus CCARM 3167 after 18 hrs by broth microdilution method; assay type: functional; settings: CCARM 3167, 18 h
Peptide deformylase = target: T1, Peptide deformylase (Staphylococcus aureus, UniProt P68826); assay: (§1) Inhibition of Staphylococcus aureus peptide deformylase using N-formylmethionine-alanine-serine as substrate by spectrophotometry
T1 sequence (P68826 whole entry): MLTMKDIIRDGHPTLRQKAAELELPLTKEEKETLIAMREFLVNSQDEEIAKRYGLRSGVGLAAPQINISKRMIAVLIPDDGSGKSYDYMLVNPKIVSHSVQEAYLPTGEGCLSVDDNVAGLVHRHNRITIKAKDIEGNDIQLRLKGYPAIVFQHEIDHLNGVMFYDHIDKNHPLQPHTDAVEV

[3] = target: T2, Peptide deformylase (Staphylococcus aureus) (UniProt P68826); assay: as §1
T2 sequence (whole entry): T1 sequence (P68826 whole entry)

Staphylococcus aureus [4] = assay: Antibacterial activity against quinolone-resistant Staphylococcus aureus CCARM 3505 after 18 hrs by broth microdilution method; assay type: functional; settings: CCARM 3505, 18 h

| SMILES | MIC (Staphylococcus aureus [1]) [µg/mL] | MIC (Staphylococcus aureus [2]) [µg/mL] | IC50 (Peptide deformylase) [µM] | inhibition [3] | MIC (Staphylococcus aureus [4]) [µg/mL] |
| --- | --- | --- | --- | --- | --- |
| Cc1c(O)c(O)c(O)c2c1CO[C@H]2[C@H]1OC(O)c2c(C)c(O)c(O)c(O)c21 (mixture of isomers) [FLAVIMYCIN A] | 32 | 32 | 35.8 | Dose-dependent effect | 32 |
| COCc1c(O)c(O)c(O)c2c1CO[C@H]2[C@H]1OC(O)c2c(C)c(O)c(O)c(O)c21 (mixture of isomers) [FLAVIMYCIN B] | 64 | 64 | 100 | Dose-dependent effect | 64 |
| CCCCC[C@H](CC(=O)NO)C(=O)N[C@H](C(=O)N1CCC[C@H]1CO)C(C)C [ACTINONIN] | 4 (≈ 10.4 µM) | 4 (≈ 10.4 µM) | 0.02 |  | 4 (≈ 10.4 µM) |
